Experimental data from patent publication US8877801B2, “Compounds and compositions as selective estrogen receptor degraders” (Novartis AG, priority 2013, dated 2014).

What follows are compounds tested against T1, ER (Homo sapiens, UniProt P03372) (assay: ER transcription assay (MCF7 cells), ERE-luciferase reporter). Conditions: MCF7 cells, ER reporter gene, 0.1 nM 17β estradiol, 24 hours; read-out: MCF7 IC50 (inflection point of the inhibition of transcription in MCF7 cells).
T1 construct: transfected in MCF7 cells (containing endogenous ER); endogenous in cells; host or cells: MCF7 cells
T1 sequence (P03372 1-595): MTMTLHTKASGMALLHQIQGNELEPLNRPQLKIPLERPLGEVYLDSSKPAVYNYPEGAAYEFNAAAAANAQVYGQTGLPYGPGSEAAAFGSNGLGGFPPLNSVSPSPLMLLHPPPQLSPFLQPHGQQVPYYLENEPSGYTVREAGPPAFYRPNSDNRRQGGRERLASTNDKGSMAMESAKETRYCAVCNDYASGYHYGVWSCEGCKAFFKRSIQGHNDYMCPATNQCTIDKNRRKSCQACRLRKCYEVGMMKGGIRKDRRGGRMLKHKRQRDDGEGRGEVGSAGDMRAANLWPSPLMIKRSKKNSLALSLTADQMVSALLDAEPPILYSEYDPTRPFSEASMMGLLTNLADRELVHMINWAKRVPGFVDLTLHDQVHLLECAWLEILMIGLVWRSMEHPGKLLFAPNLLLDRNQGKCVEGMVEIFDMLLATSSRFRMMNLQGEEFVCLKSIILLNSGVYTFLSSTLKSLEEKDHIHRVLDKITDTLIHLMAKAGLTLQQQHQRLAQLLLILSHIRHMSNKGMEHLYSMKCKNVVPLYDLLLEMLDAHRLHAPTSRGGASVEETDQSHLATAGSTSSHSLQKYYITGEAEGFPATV
Format: cell-based
Description: ER Transcription Assay (MCF7 Cells)
The ER transcription assay is a reporter assay that is based on the ability of ER to induce transcription from a luciferase reporter gene containing estrogen response elements (EREs) in the promoter/enhancer region. When the reporter gene is transfected in MCF7 cells (containing endogenous ER), transcription is reflected by the level of luciferase expression.
A day before transfection, cells are split into a T75 flask at a cell density of 300,000 cells/mL (10 mL total) and allowed to attach overnight in a humidified CO2 incubator at 37° C.
Approximately 20 ug DNA is mixed in OptiMEM (Invitrogen) to a total volume of 650 μL. Following incubation, the OptiMEM-DNA mixture is added to the OptiMEM-Lipofectin mix and incubated for 15 minutes at 37° C. The DNA-Lipofectin mixture is then added directly to the T75 flask and the flask is returned to the incubator.
After overnight incubation, compound is added to individual wells of a 96-well plate in a 10 μL volume of media at 10× concentration along with 17β estradiol whose final concentration is 0.1 nM. Normally, DMSO (used as a vehicle) is included to achieve a final concentration of 0.1% when added to the cells. Transfected cells are trypsinized, resuspended in DMEM/F12/10% charcoal-stripped serum and added to the 96-well plate at 25,000 cells/well in 90 μL of media. The plate is then returned to the incubator for 24 hours.
After incubation with compounds for 24 hours, Firefly and Renilla luciferase activities are measured to determine ER transcriptional activity. Media is removed from 96-well plates by decanting and blotting on paper towels.
One second total read time after a one second delay.
One second total read time after one second delay. If Firefly luciferase signal is high, Renilla assay must be done an hour after the Firefly assay due to incomplete squelching of Firefly signal.
The data describing the antagonist and degradation properties for the examples is compiled in table 10. The column titled MCF7 IC50 reports the inflection point of the inhibition of transcription in MCF7 cells as described above. Percentage ERα remaining reports the remaining ERα protein measured at 10 μM concentration of the ligand as described above. The column ERα IC50 reports the inflection point of the degradation in response to the ligand concentration.

SMILES	IC50
Cc1cc(/C=C/C(=O)O)ccc1Oc1c(-c2ccc(O)cc2)sc2cc(O)ccc12 [Example 57, (E)-3-(4-((6-hydroxy-2-(4-hydroxyphenyl)-benzo[b]thiophen-3-yl)oxy)-3-methylphenyl)acrylic acid]	1030 nM
O=C(O)/C=C/c1ccc(Oc2c(-c3ccccc3Cl)sc3cc(O)ccc23)cc1 [Example 9, (E)-3-(4-((2-(2-chlorophenyl)-6-hydroxybenzo[b]-thiophen-3-yl)oxy)phenyl)-acrylic acid]	407 nM
O=C(O)/C=C/c1ccc(Oc2c(-c3ccc(O)cc3)sc3c(F)c(O)c(F)cc23)cc1 [Example 38, (E)-3-(4-((5,7-difluoro-6-hydroxy-2-(4-hydroxyphenyl)benzo[b]-thiophen-3-yl)oxy)phenyl)acrylic acid]	152 nM
O=C(O)/C=C/c1ccc(Oc2c(-c3ccc(OC(F)(F)F)cc3)sc3cc(O)ccc23)cc1 [Example 59, (E)-3-(4-((6-hydroxy-2-(4-(trifluoromethoxy)-phenyl)benzo[b]thiophen-3-yl)oxy)phenyl)-acrylic acid]	1250 nM
Cc1noc(C)c1-c1sc2cc(O)ccc2c1Oc1ccc(/C=C/C(=O)O)cc1 [Example 15, (E)-3-(4-((2-(3,5-dimethylisoxazol-4-yl)-6-hydroxybenzo-[b]thiophen-3-yl)oxy)-phenyl)acrylic acid]	404 nM
CNC(=O)/C=C/c1ccc(Oc2c(-c3ccc(C(F)(F)F)cc3)sc3cc(O)ccc23)cc1 [Example 63, (E)-3-(4-((6-hydroxy-2-(4-(trifluoromethyl)-phenyl)benzo[b]thiophen-3-yl)oxy)phenyl)-N-methylacrylamide]	185 nM
COc1ccc(-c2sc3cc(O)ccc3c2Oc2ccc(/C=C/C(=O)O)cc2)cc1 [Example 26, (E)-3-(4-((6-hydroxy-2-(4-methoxyphenyl)benzo[b]thiophen-3-yl)oxy)phenyl)acrylic acid]	647 nM
O=C(O)/C=C/c1ccc(Oc2c(-c3ccccc3[N+](=O)[O-])sc3cc(O)ccc23)cc1 [Example 21, (E)-3-(4-((6-hydroxy-2-(2-nitrophenyl)-benzo[b]thiophen-3-yl)oxy)phenyl)-acrylic acid]	313 nM
Cn1nnnc1/C=C/c1ccc(Oc2c(-c3ccc(O)cc3)sc3cc(O)ccc23)cc1 [Example 54, (E)-2-(4-hydroxyphenyl)-3-(4-(2-(1-methyl-1H-tetrazol-5-yl)vinyl)-phenoxy)benzo[b]thiophen-6-ol]	1 nM
COC(=O)/C=C/c1ccc(Oc2c(-c3ccc(O)cc3)sc3c(F)c(O)c(F)cc23)cc1 [Example 37, (E)-methyl 3-(4-((5,7-difluoro-6-hydroxy-2-(4-hydroxyphenyl)-benzo[b]thiophen-3-yl)oxy)phenyl)acrylate]	41 nM
Cc1cc(F)ccc1-c1sc2cc(O)ccc2c1Oc1ccc(/C=C/c2nnnn2C)cc1 [Example 51, (E)-2-(4-fluoro-2-methylphenyl)-3-(4-(2-(1-methyl-1H-tetrazol-5-yl)vinyl)phenoxy)-benzo[b]thiophen-6-ol]	61 nM
O=C(/C=C/c1ccc(Oc2c(-c3ccc(F)cc3)sc3cc(O)ccc23)cc1)NCCC(F)(F)F [Example 33, (E)-3-(4-((2-(4-fluorophenyl)-6-hydroxybenzo[b]-thiophen-3-yl)oxy)phenyl)-N-(3,3,3-trifluoropropyl)-acrylamide]	73 nM
O=C(O)CCc1ccc(Oc2c(-c3ccc(O)cc3)sc3cc(O)ccc23)cc1 [Example 1, 3-(4-((6-hydroxy-2-(4-hydroxyphenyl)benzo[b]thiophen-3-yl)oxy)phenyl)propanoic acid]	457 nM
O=C(/C=C/c1ccc(Oc2c(-c3ccc(O)cc3)sc3cc(O)ccc23)cc1)NCCO [Example 65, (E)-3-(4-((6-hydroxy-2-(4-hydroxyphenyl)benzo[b]-thiophen-3-yl)oxy)phenyl)-N-(2-hydroxyethyl)acrylamide]	55 nM
Cc1cc(C)cc(-c2sc3cc(O)ccc3c2Oc2ccc(/C=C/C(=O)O)cc2)c1 [Example 23, (E)-3-(4-((2-(3,5-dimethylphenyl)-6-hydroxybenzo[b] - thiophen-3-yl)oxy)phenyl)-acrylic acid]	748 nM
Cc1cccc(-c2sc3cc(O)ccc3c2Oc2ccc(/C=C/C(=O)O)cc2)c1C [Example 13, (E)-3-(4-((2-(2,3-dimethylphenyl)-6-hydroxybenzo[b]-thiophen-3-yl)oxy)phenyl)-acrylic acid]	151 nM
Cc1cc(F)ccc1-c1sc2cc(O)ccc2c1Oc1ccc(/C=C/c2n[nH]c(=O)o2)cc1 [Example 48, (E)-5-(4-((2-(4-fluoro-2-methylphenyl)-6-hydroxybenzo[b]thiophen-3-yl)oxy)styryl)-1,3,4-oxadiazol-2(3H)-one]	422 nM
O=c1nc(/C=C/c2ccc(Oc3c(-c4ccc(O)cc4)sc4cc(O)ccc34)cc2)cc(C(F)(F)F)[nH]1 [Example 50, (E)-4-(4-((6-hydroxy-2-(4-hydroxyphenyl)-benzo[b]thiophen-3-yl)oxy)styryl)-6-(trifluoromethyl)-pyrimidin-2(1H)-one]	154 nM
Cc1ccc(C)c(-c2sc3cc(O)ccc3c2Oc2ccc(/C=C/C(=O)O)cc2)c1 [Example 14, (E)-3-(4-((2-(2,5-dimethylphenyl)-6-hydroxybenzo[b]-thiophen-3-yl)oxy)phenyl)-acrylic acid]	238 nM
CCCn1nnnc1/C=C/c1ccc(Oc2c(-c3ccc(F)cc3C)sc3cc(O)ccc23)cc1 [Example 53, (E)-2-(4-fluoro-2-methylphenyl)-3-(4-(2-(1-propyl-1H-tetrazol-5-yl)vinyl)phenoxy) benzo[b]thiophen-6-ol]	320 nM
CC(=O)c1ccccc1-c1sc2cc(O)ccc2c1Oc1ccc(/C=C/C(=O)O)cc1 [Example 19, (E)-3-(4-((2-(2-acetylphenyl)-6-hydroxybenzo[b]-thiophen-3-yl)oxy)phenyl)-acrylic acid]	218 nM
NC(=O)/C=C/c1ccc(Oc2c(-c3ccc(O)cc3)sc3cc(O)ccc23)cc1 [Example 64, (E)-3-(4-((6-hydroxy-2-(4-hydroxyphenyl)-benzo[b]thiophen-3-yl)oxy)phenyl)acrylamide]	40 nM
O=C(/C=C/c1ccc(Oc2c(-c3ccc(O)cc3)sc3cc(O)ccc23)cc1)NCCC(F)(F)F [Example 31, (E)-3-(4-((6-hydroxy-2-(4-hydroxyphenyl)benzo[b]thiophen-3-yl)oxy)phenyl)-N-(3,3,3-trifluoropropyl)acrylamide]	10 nM
CC(C)c1ccccc1-c1sc2cc(O)ccc2c1Oc1ccc(/C=C/C(=O)O)cc1 [Example 4, (E)-3-(4-((6-hydroxy-2-(2-isopropylphenyl)benzo[b]thiophen-3-yl)oxy)phenyl)acrylic acid]	6 nM
CNC(=O)/C=C/c1ccc(Oc2c(-c3ccc(F)cc3)sc3cc(O)ccc23)cc1 [Example 67, (E)-3-(4-((2-(4-fluorophenyl)-6-hydroxybenzo[b]thiophen-3-yl)oxy)phenyl)-N-methylacrylamide]	373 nM
O=C(O)/C=C/c1ccc(Oc2c(-c3ccc(O)cc3)sc3c(F)c(O)ccc23)cc1 [Example 39, (E)-3-(4-((7-fluoro-6-hydroxy-2-(4-hydroxyphenyl)benzo[b]-thiophen-3-yl)oxy)phenyl)acrylic acid]	653 nM
O=C(O)/C=C/c1ccc(Oc2c(-c3ccc(O)c(F)c3)sc3cc(O)ccc23)cc1 [Example 40, (E)-3-(4-((2-(3-fluoro-4-hydroxyphenyl)-6-hydroxybenzo[b]thiophen-3-yl)oxy)phenyl)acrylic acid]	424 nM
C[C@H](O)c1ccccc1-c1sc2cc(O)ccc2c1Oc1ccc(/C=C/C(=O)O)cc1 [Example 25, (S,E)-3-(4-((6-hydroxy-2-(2-(1-hydroxyethyl)phenyl)-benzo[b]thiophen-3-yl)oxy)phenyl)acrylic acid]	179 nM
